Patent US8399482B2, “6-substituted isoquinolines and isoquinolinones” (Sanofi, priority 2008, dated 2013)
pIC50: −log10 of the molar value. Values belong to the molecule of their own block, whether it stands above or below them.

Assays:
Type in all cases: biochemical
[1] = biological target: T1, human recombinant ROCK II (Homo sapiens, UniProt O75116); test: Determination of Rho kinase inhibition (ROCK II, Caliper peptide phosphorylation assay); details: respective form (salt or free base) as obtained in the examples, 60 min at 32° C.
T1 construct: recombinant human ROCK-II residues 11-552; His6 (N); purchased Millipore GmbH, Schwalbach, Germany
Experimental: To measure Rho-kinase inhibition, IC50 values were determined according to the following protocol:
Active human recombinant ROCK II (N-terminal His6-tagged recombinant human ROCK-II residues 11-552) was purchased from Millipore GmbH, Schwalbach, Germany. The peptide substrate, Fluorescein-[…]-COOH, was obtained from JPT Peptide Technologies, Berlin, Germany. Adenosine-5′-triphosphate (ATP), bovine serum albumine (BSA), dimethylsulphoxide (DMSO), 4-(2-hydroxyethyl)piperazine-1-ethanesulfonic acid (Hepes), Brij-35, dithiothreitol (DTT) and Pluronic F-68 were purchased from Sigma-Aldrich, Munich, Germany. Tris(hydroxymethyl)-aminomethane (Tris), magnesium chloride, NaOH, 1M HCl and EDTA were obtained from Merck Biosciences, Darmstadt, Germany. “Complete” protease inhibitor was from Roche Diagnostics, Mannheim, Germany. Test compounds were diluted to the appropriate concentrations in buffer 1 (25 mM Tris-HCl, pH 7.4, 5 mM MgCl2, 2 mM DTT, 0.02% (w/v) BSA, 0.01% Pluronic F-68 and 3% DMSO). The ROCK II enzyme was diluted to a concentration of 100 ng/mL in buffer 2 (25 mM Tris-HCl, pH 7.4, 5 mM MgCl2, 2 mM DTT and 0.02% (w/v) BSA). The peptide substrate and ATP were diluted to concentrations of 3 μM and 120 μM, respectively, in the buffer 2. Two μl of the compound solution were mixed with 2 μl of the diluted enzyme in a 384-well small volume microtiter plate (Greiner, Bio-One, Frickenhausen, Germany), and the kinase reaction was initiated by addition of 2 μl of the solution containing peptide substrate and ATP. After 60 min incubation at 32° C., the reaction was stopped by addition of 20 μl of a solution containing 100 mM Hepes-NaOH, pH 7.4, 0.015% (v/v) Brij-35, 45 mM EDTA and 0.227% chip coating reagent 1 (Caliper Lifescience Inc, Hopkinton, Mass.). Phosphorylation of the substrate peptide was then detected on a Caliper 3000 instrument essentially as described by Pommereau et al (J. Biomol. Screening 2004, 9(5), 409-416). Separation conditions were as follows: Pressure −1.3 psi, upstream voltage −1562 V, downstream voltage −500 V, sample sip time 200 ms. Positive controls (buffer 1 instead of compound) and negative controls (buffer 1 instead of compound and buffer 2 instead of ROCK II) were run in parallel on each plate.
The following products/compounds were tested in said assay by using the respective form (salt or free base) obtained as in the examples described above and the following activities were measured

recombinant human PKA = biological target: T2, recombinant human PKA (Homo sapiens, UniProt P17612); test: Determination of Protein Kinase A inhibition (selectivity); details: from IC50 values
T2 construct: recombinant human PKA (residues 1-351, N-terminal His-tag); His-tag (N); purchased Invitrogen, Karlsruhe, Germany
Experimental: (§1) 2) Determination of Protein Kinase a and Protein Kinase G Inhibition
(§2) To measure PKA and PKG1-beta inhibition, IC50 values were determined according to the following protocol:
(§3) Active recombinant human PKG1-beta (full-length, with N-terminal His-tag) was purchased from Millipore GmbH, Schwalbach, Germany. Active recombinant human PKA (residues 1-351, N-terminal His-tag) was obtained from Invitrogen, Karlsruhe, Germany. The peptide substrate, Fluorescein-[…]-COOH, was obtained from JPT Peptide Technologies, Berlin, Germany. Adenosine-5′-triphosphate (ATP), bovine serum albumine (BSA), dimethylsulphoxide (DMSO), 4-(2-Hydroxyethyl)piperazine-1-ethanesulfonic acid (Hepes), Brij-35, dithiothreitol (DTT) and Pluronic F-68 were purchased from Sigma-Aldrich, Munich, Germany. Tris(hydroxymethyl)-aminomethane (Tris), magnesium chloride, NaOH, 1M HCl and EDTA were obtained from Merck Biosciences, Darmstadt, Germany. “Complete” protease inhibitor was from Roche Diagnostics, Mannheim, Germany. Test compounds were diluted to the appropriate concentrations in buffer 1 (25 mM Tris-HCl, pH 7.4, 5 mM MgCl2, 2 mM DTT, 0.02% (w/v) BSA, 0.01% Pluronic F-68 and 3% DMSO). PKG1-beta and PKA were diluted to concentrations of 150 ng/ml and 30 ng/ml, respectively, in buffer 2. The peptide substrate and ATP were diluted to concentrations of 3 μM and 120 μM, respectively, in the buffer 2. Two μl of the compound solution were mixed with 2 μl of the diluted enzyme in a 384-well small volume microtiter plate (Greiner, Bio-One, Frickenhausen, Germany), and the kinase reaction was initiated by addition of 2 μl of the solution containing peptide substrate and ATP. After 60 min incubation at 32° C., the reaction was stopped by addition of 20 μl of a solution containing 100 mM Hepes-NaOH, pH 7.4, 0.015% (v/v) Brij-35, 45 mM EDTA and 0.227% chip coating reagent 1 (Caliper Lifescience Inc, Hopkinton, Mass.). Phosphorylation of the substrate peptide was then detected on a Caliper 3000 instrument essentially as described by Pommereau et al (J. Biomol. Screening 9(5), 409-416, 2004). Separation conditions were as follows: Pressure −1.3 psi, upstream voltage −1562 V, downstream voltage −500 V, sample sip time 200 ms, Positive controls (buffer 1 instead of compound) and negative controls (buffer 1 instead of compound and buffer 2 instead of kinase solution) were run in parallel on each plate. The following products/compounds were tested in said assay by using the respective form (salt or free base) obtained as in the examples described above and the following activities were measured.

[2] = biological target: T3, recombinant human PKG1-beta (Homo sapiens, UniProt Q13976); test: Determination of Protein Kinase G inhibition (selectivity); details: from IC50 values
T3 construct: PKG1-beta (full-length, with N-terminal His-tag); His-tag (N); purchased Millipore GmbH, Schwalbach, Germany
T3 sequence (Q13976 1-686 isoform Q13976-2): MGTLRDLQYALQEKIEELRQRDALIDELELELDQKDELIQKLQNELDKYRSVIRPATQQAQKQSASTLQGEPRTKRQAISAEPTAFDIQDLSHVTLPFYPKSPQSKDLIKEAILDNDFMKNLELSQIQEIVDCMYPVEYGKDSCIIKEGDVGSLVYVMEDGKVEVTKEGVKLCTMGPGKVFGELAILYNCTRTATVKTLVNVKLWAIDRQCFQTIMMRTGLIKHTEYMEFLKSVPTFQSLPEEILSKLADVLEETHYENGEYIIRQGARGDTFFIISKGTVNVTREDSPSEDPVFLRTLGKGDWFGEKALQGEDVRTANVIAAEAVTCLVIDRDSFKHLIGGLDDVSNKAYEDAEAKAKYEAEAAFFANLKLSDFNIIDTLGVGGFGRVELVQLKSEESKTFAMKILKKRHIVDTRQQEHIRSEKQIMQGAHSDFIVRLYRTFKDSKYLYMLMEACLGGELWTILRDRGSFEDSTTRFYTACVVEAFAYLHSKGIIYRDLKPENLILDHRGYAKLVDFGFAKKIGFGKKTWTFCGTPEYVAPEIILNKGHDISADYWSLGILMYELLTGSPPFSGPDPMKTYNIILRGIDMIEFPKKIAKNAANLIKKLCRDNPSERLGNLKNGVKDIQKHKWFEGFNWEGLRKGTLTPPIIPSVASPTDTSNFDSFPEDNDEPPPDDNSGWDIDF
Experimental: as §1, §2, §3

T1 sequence (O75116 11-552): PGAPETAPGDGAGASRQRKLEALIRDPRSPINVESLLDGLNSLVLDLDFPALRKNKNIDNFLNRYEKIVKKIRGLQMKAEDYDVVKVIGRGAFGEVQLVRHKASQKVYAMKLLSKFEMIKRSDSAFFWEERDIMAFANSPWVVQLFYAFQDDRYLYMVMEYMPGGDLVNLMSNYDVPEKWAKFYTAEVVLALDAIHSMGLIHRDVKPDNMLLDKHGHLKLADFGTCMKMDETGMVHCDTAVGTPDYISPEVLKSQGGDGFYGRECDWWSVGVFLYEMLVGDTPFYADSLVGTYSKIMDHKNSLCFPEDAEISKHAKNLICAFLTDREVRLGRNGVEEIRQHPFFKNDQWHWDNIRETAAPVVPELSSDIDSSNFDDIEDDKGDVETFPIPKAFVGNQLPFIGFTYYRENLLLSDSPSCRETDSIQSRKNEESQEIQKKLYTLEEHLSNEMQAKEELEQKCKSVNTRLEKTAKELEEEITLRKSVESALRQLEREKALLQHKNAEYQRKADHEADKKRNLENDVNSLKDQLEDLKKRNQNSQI

- pIC50 [1]: ≥ 8.00
- Selectivity against PKA (recombinant human PKA): >1000 fold
- Selectivity against PKG [2]: >300 fold
SMILES: CCC(N)C1(CC2CC2)CCC(Oc2cc3cc[nH]c(=O)c3cc2Cl)CC1 (single isomer, unassigned) [Example 12, 6-[4-(1-Amino-propyl)-4-cyclopropyl-methyl-cyclohexyl-oxy]-7-chloro-2H-isoquinolin-1-one]

- pIC50 [1]: 7.00 to 8.00
- Selectivity against PKA (recombinant human PKA): >10 fold
- Selectivity against PKG [2]: >10 fold
SMILES: CCC(N)C1(CC2CC2)CCC(Oc2cc3cc[nH]c(=O)c3cc2Cl)CC1 (single isomer, unassigned) [Example 13, 6-[4-(1-Amino-propyl)-4-cyclopropyl-methyl-cyclohexyl-oxy]-7-chloro-2H-isoquinolin-1-one]

- pIC50 [1]: 7.00 to 8.00
- Selectivity against PKA (recombinant human PKA): >300 fold
- Selectivity against PKG [2]: >100 fold
SMILES: CCC(N)C1(C2CCC2)CCC(Oc2cc3cc[nH]c(=O)c3cc2Cl)CC1 (single isomer, unassigned) [Example 22, 6-[4-(1-Amino-propyl)-4-cyclobutyl-cyclohexyloxy]-7-chloro-2H-isoquinolin-1-one]

- pIC50 [1]: 6.00 to 7.00
- Selectivity against PKA (recombinant human PKA): >10 fold
- Selectivity against PKG [2]: >10 fold
SMILES: CCC(N)C1(C2CCC2)CCC(Oc2cc3cc[nH]c(=O)c3cc2Cl)CC1 (single isomer, unassigned) [Example 23, 6-[4-(1-Amino-propyl)-4-cyclobutyl-cyclohexyloxy]-7-chloro-2H-isoquinolin-1-one]

- pIC50 [1]: 7.00 to 8.00
- Selectivity against PKA (recombinant human PKA): >1000 fold
- Selectivity against PKG [2]: >1000 fold
SMILES: CCC(N)C1(C)CCC(Oc2cc3cc[nH]c(=O)c3cc2Cl)CC1 (single isomer, unassigned) [Example 27, 6-[4-(1-Amino-propyl)-4-methyl-cyclohexyloxy]-7-chloro-2H-isoquinolin-1-one]

The next lines start with the molecule.

SMILES: CC(N)C1(CC2CC2)CCC(Oc2cc3cc[nH]c(=O)c3cc2Cl)CC1 (single isomer, unassigned) [Example 11, 6-[4-(1-Amino-ethyl)-4-cyclopropylmethyl-cyclohexyloxy]-7-chloro-2H-isoquinolin-1-one]
- pIC50 [1]: 7.00 to 8.00
- Selectivity against PKA (recombinant human PKA): >100 fold
- Selectivity against PKG [2]: >300 fold

SMILES: CCCC(N)C1(CC2CC2)CCC(Oc2cc3cc[nH]c(=O)c3cc2Cl)CC1 (single isomer, unassigned) [Example 14, 6-[4-(1-Amino-butyl)-4-cyclopropylmethyl-cyclohexyloxy]-7-chloro-2H-isoquinolin-1-one]
- pIC50 [1]: ≥ 8.00
- Selectivity against PKA (recombinant human PKA): >1000 fold
- Selectivity against PKG [2]: >100 fold

SMILES: CCCC(N)C1(CC2CC2)CCC(Oc2cc3cc[nH]c(=O)c3cc2Cl)CC1 (single isomer, unassigned) [Example 15, 6-[4-(1-Amino-butyl)-4-cyclopropylmethyl-cyclohexyloxy]-7-chloro-2H-isoquinolin-1-one]
- pIC50 [1]: 7.00 to 8.00
- Selectivity against PKA (recombinant human PKA): >10 fold
- Selectivity against PKG [2]: >10 fold

SMILES: NC(C1CC1)C1(CC2CC2)CCC(Oc2cc3cc[nH]c(=O)c3cc2Cl)CC1 (single isomer, unassigned) [Example 16, 6-[4-(Amino-cyclopropyl-methyl)-4-cyclopropylmethyl-cyclohexyloxy]-7-chloro-2H-isoquinolin-1-one]
- pIC50 [1]: ≥ 8.00
- Selectivity against PKA (recombinant human PKA): >300 fold
- Selectivity against PKG [2]: >300 fold

SMILES: NC(C1CC1)C1(CC2CC2)CCC(Oc2cc3cc[nH]c(=O)c3cc2Cl)CC1 (single isomer, unassigned) [Example 17, 6-[4-(Amino-cyclopropyl-methyl)-4-cyclopropylmethyl-cyclohexyloxy]-7-chloro-2H-isoquinolin-1-one]
- pIC50 [1]: 7.00 to 8.00
- Selectivity against PKA (recombinant human PKA): >10 fold
- Selectivity against PKG [2]: >10 fold

SMILES: CC(C)C(N)C1(CC2CC2)CCC(Oc2cc3cc[nH]c(=O)c3cc2Cl)CC1 (single isomer, unassigned) [Example 18, 6-[4-(1-Amino-2-methyl-propyl)-4-cyclopropylmethyl-cyclohexyloxy]-7-chloro-2H-isoquinolin-1-one]
- pIC50 [1]: ≥ 8.00
- Selectivity against PKA (recombinant human PKA): >300 fold
- Selectivity against PKG [2]: >300 fold

SMILES: CCC(N)C1(COC(C)C)CCC(Oc2cc3cc[nH]c(=O)c3cc2Cl)CC1 (single isomer, unassigned) [Example 19, 6-[4-(1-Amino-propyl)-4-isopropoxymethyl-cyclohexyloxy]-7-chloro-2H-isoquinolin-1-one]
- pIC50 [1]: 7.00 to 8.00
- Selectivity against PKA (recombinant human PKA): >1000 fold
- Selectivity against PKG [2]: >300 fold

SMILES: CC(N)C1(C2CCC2)CCC(Oc2cc3cc[nH]c(=O)c3cc2Cl)CC1 (single isomer, unassigned) [Example 21, 6-[4-(1-Amino-ethyl)-4-cyclobutyl-cyclohexyloxy]-7-chloro-2H-isoquinolin-1-one]
- pIC50 [1]: 7.00 to 8.00
- Selectivity against PKA (recombinant human PKA): >300 fold
- Selectivity against PKG [2]: >100 fold

SMILES: NC(c1ccccc1)C1(C2CCCC2)CCC(Oc2cc3cc[nH]c(=O)c3cc2Cl)CC1 (single isomer, unassigned) [Example 25, 6-[4-(Amino-phenyl-methyl)-4-cyclopentyl-cyclohexyloxy]-7-chloro-2H-isoquinolin-1-one]
- pIC50 [1]: 7.00 to 8.00
- Selectivity against PKA (recombinant human PKA): >300 fold
- Selectivity against PKG [2]: >100 fold
